Experimental data reported in ChEMBL document CHEMBL1149421, “Potent 4-arylalkyl-substituted 3-isothiazolol GABA(A) competitive/noncompetitive antagonists: synthesis and pharmacology” (J Med Chem, 2006).

Legend:
[1] = target: GABA A receptor alpha-5/beta-3/gamma-2 (Rattus norvegicus, UniProt P18508+P19969+P63079); assay: Displacement of [3H]muscimol from GABAA alpha-1-beta-3-gamma-2S in rat brain membrane; assay type: cell membranes
[2] = target: GABA-A receptor; alpha-1/beta-3/gamma-2 (Homo sapiens) (UniProt P14867+P18507+P28472); assay: Maximal effect at GABA alpha-1-beta-3-gamma-2S expressed in Xenopus oocytes; assay type: functional, cell-based; details: Oocyte
[3] = target: T1, GABA-A receptor; alpha-1/beta-3/gamma-2 (Homo sapiens, UniProt P14867+P18507+P28472); assay: Binding affinity at human GABAA alpha-1-beta-3-gamma-2S expressed in Xenopus oocytes by voltage-clamp electrophysiology; assay type: functional, cell-based, Oocyte
T1 sequence (P14867 whole entry): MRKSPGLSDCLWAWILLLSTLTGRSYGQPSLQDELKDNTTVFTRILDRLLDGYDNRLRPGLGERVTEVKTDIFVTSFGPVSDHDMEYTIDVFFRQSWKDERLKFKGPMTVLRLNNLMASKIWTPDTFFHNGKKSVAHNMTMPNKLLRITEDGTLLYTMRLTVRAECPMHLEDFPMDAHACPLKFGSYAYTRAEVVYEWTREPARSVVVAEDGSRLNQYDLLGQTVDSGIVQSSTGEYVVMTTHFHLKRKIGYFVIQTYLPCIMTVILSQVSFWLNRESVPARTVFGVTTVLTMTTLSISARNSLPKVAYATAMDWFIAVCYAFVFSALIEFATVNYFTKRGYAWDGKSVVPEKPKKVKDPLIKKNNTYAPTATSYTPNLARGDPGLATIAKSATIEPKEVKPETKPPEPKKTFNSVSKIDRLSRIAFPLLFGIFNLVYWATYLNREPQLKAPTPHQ
T1 sequence (P18507 whole entry): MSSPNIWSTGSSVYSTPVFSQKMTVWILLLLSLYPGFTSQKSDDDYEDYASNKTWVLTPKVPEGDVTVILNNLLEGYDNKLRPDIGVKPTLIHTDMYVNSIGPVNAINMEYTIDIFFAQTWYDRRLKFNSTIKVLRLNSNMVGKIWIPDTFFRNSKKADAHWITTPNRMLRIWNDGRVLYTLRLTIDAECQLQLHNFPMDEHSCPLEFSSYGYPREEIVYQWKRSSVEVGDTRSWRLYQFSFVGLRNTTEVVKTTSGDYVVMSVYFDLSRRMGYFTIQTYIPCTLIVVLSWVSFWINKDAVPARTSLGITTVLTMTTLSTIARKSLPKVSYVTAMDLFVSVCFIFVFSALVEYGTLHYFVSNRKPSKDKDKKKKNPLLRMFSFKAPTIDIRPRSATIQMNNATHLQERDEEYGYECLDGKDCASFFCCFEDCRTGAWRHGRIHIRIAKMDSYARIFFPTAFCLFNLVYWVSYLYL
T1 sequence (P28472 whole entry): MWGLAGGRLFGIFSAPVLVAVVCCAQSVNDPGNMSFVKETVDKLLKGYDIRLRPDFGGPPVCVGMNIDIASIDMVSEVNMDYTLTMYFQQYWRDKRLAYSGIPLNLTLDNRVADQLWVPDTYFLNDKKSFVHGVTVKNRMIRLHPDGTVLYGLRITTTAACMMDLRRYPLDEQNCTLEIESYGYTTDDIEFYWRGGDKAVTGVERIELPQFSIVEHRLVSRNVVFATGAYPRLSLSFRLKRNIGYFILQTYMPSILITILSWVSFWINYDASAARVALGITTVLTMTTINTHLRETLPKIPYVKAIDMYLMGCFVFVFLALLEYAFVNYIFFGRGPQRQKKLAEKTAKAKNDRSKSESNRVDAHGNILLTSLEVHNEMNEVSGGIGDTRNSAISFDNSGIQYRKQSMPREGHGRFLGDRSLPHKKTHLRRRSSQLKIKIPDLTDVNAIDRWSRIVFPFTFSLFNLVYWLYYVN

[4] = Binding affinity at human GABAA alpha-4-beta-3-delta expressed in Xenopus oocytes by voltage-clamp electrophysiology; assay type: functional, cell-based; details: oocyte
[5] = Maximal effect at GABA alpha-4-beta-3-delta expressed in Xenopus oocytes; assay type: functional; details: Homo sapiens, Oocyte

Sequence of GABA A receptor alpha-5/beta-3/gamma-2 (P18508 whole entry): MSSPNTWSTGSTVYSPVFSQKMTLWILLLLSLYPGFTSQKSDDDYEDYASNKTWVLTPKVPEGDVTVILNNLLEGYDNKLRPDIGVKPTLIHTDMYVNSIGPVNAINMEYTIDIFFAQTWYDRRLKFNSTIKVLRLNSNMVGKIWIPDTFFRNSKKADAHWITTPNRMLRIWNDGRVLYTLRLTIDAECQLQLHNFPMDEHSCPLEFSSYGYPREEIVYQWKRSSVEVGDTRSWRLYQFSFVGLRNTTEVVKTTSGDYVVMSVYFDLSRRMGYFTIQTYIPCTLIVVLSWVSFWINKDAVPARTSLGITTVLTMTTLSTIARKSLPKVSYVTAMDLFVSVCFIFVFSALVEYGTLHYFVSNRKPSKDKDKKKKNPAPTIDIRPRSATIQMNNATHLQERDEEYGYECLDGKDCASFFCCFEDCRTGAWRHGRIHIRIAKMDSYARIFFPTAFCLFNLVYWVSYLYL
Sequence of GABA A receptor alpha-5/beta-3/gamma-2 (P19969 whole entry): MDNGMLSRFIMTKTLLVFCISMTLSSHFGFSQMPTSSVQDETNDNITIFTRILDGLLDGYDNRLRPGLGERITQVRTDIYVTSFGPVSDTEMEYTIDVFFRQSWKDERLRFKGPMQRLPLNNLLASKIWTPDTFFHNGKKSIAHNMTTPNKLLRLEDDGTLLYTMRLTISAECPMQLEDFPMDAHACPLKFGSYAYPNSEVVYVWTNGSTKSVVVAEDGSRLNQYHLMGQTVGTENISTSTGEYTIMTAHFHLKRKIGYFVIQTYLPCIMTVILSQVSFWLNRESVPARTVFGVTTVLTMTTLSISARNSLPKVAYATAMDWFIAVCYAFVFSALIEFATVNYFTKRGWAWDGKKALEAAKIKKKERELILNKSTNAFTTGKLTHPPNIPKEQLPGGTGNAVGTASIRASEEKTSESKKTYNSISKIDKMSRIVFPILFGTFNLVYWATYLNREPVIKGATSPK
Sequence of GABA A receptor alpha-5/beta-3/gamma-2 (P63079 whole entry): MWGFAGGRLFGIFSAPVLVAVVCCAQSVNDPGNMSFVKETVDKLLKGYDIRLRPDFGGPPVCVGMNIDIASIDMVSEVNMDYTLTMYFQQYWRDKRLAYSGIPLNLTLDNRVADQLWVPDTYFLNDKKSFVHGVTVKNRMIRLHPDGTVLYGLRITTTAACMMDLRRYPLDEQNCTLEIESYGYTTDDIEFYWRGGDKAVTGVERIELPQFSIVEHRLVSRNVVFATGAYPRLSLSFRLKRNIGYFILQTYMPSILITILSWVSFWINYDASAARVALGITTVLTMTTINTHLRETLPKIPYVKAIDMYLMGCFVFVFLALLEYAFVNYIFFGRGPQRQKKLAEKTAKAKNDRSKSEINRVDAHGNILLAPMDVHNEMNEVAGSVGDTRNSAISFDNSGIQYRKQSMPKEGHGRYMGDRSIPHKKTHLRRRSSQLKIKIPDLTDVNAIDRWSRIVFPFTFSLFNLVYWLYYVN

| Structure (SMILES) | Ki [1] [nM] | Emax [2] [%] | Ki [3] [nM] | Ki [4] [nM] | Emax [5] [%] |
| --- | --- | --- | --- | --- | --- |
| Oc1noc(C2CCNCC2)c1CCC(c1ccccc1)c1ccccc1 | 68 | 90 | 20 | 2.3 |  |
| Oc1noc(C2CCNCC2)c1Cc1ccc2ccccc2c1 | 49 |  | 370 |  |  |
| Oc1cc(C2CCNCC2)sn1 | 1870 |  | 25700 |  |  |
| CCCc1c(C2CCNCC2)s[nH]c1=O | 440 |  | 230 |  |  |
| O=c1[nH]sc(C2CCNCC2)c1CC(c1ccccc1)c1ccccc1 | 388 |  | 720 |  |  |
| Cc1c(O)nsc1C1CCNCC1 | 2200 |  | 2880 |  |  |

Continued, in another order:

| Ki [1] [nM] | Emax [2] [%] | Ki [3] [nM] | Ki [4] [nM] | Structure (SMILES) | Emax [5] [%] |
| --- | --- | --- | --- | --- | --- |
| 331 |  | 465 |  | Oc1nsc(C2CCNCC2)c1Cc1ccccc1 |  |
| 1.8 |  | 3 |  | Oc1nsc(C2CCNCC2)c1Cc1ccc2ccccc2c1Br |  |
| 9.6 |  | 1.2 | 0.35 | Oc1nsc(C2CCNCC2)c1CCC(c1ccccc1)c1ccccc1 | 40 |
| 5.2 |  | 22 |  | Oc1nsc(C2CCNCC2)c1Cc1ccc2ccccc2c1 |  |
